# Assay results published in patent publication US9090583B2, “Benzopyrone estrogen receptor regulator” (BEIJING SHENOGEN PHARMA GROUP LTD., priority 2010, dated 2015).
# Where two headings read alike, the source gives them in different places.
# Assays:
# [1] = tested on: MDA-MB-231 cells; test: CellTiter-Glo Luminescent Cell Viability Assay on ER-negative breast cancer MDA-MB-231 cells; format: cell-based; details: average ± standard deviation when tested more than 3 times, read-out: Inhibition of the viability of breast cancer cells, IC50
# Description: A: In Vitro CellTiter-Glo® Luminescent Cell Viability Assay on ER-Negative Breast Cancer MDA-MB-231 Cells:
# MDA-MB-231 cells were maintained at 37° C., under 5% CO2 atmosphere in DMEM containing 10% fetal calf serum. The cells were seeded on 96-well plate at a density of 6×10^3 cells per well. MDA-MB-231 cells were treated with a test compound dissolved in DMSO at the concentrations of zero, 0.3 μM, 0.5 μM, 1 μM, 2 μM, 3 μM, 5 μM, 10 μM, 20 μM, 30 μM, 50 μM and 100 μM for 72 hours. Treated cells were examined by CellTiter-Glo® Luminescent Cell Viability Assay Kit (Promega), and luminescence values were recorded with Envision.
# [2] = tested on: MCF7 cells; test: CellTiter-Glo Luminescent Cell Viability Assay on ER-positive breast cancer MCF-7 cells; format: cell-based, human; details: average ± standard deviation when tested more than 3 times, read-out: Inhibition of the viability of breast cancer cells, IC50
# Source text: B: In Vitro CellTiter-Glo® Luminescent Cell Viability Assay on ER-Positive Breast Cancer MCF-7 Cells:
# MCF7 cells are breast cancer cell lines that highly express ER-66, ER-46 and ER-36. (Relevance of breast cancer cell lines as models for breast tumours: an update. Marc Lacroix, Guy Leclercq, Breast Cancer Research and Treatment (2004) 83, 249-289; Wang et al., Proc. Natl. Acad. Sci. U.S.A. 103:9063-9068 (2006)). MCF7 cells were obtained from ATCC and maintained in Dulbecco's Modified Eagles Medium (DMEM) and 10% fetal calf serum at 37° C., under 5% CO2 atmosphere. The cells were seeded on 96-well plate at a density of 6×10^3 cells per well. MCF7 cells were treated with a test compound dissolved in DMSO at the concentrations of zero, 0.3 μM, 0.5 μM, 1 μM, 2 μM, 3 μM, 5 μM, 10 μM, 20 μM, 30 μM, 50 μM and 100 μM for 72 hours. Treated cells were examined by CellTiter-Glo® Luminescent Cell Viability Assay Kit (Promega), and luminescence values were recorded with Envision.
SMILES,"IC50 ([1]; Homo sapiens, MDA-MB-231, 72 h)","IC50 ([2]; Homo sapiens, MCF7, 72 h)",IC50 ([1]; 72 hours),IC50 ([2]; 72 hours)
"COc1c(-c2ccoc2)oc2c(CC=C(C)C)c(O)c(CC=C(C)C)c(O)c2c1=O [Compound 42, 2-(furan-3-yl)-5,7-dihydroxy-3-methoxy-6,8-di(3-methyl-2-buten-1-yl)-4H-benzopyran-4-one]",28.7 µM,12.4 µM,–,–
"COc1c(-c2cscn2)oc2c(CC=C(C)C)c(O)c(CC=C(C)C)c(O)c2c1=O [Compound 43, 2-(thiazol-4-yl)-5,7-dihydroxy-3-methoxy-6,8-di(3-methyl-2-buten-1-yl)-4H-benzopyran-4-one]",> 100 µM,25.7 µM,–,–
"COc1c(-c2cocn2)oc2c(CC=C(C)C)c(O)c(CC=C(C)C)c(O)c2c1=O [Compound 44, 2-(oxazol-4-yl)-5,7-dihydroxy-3-methoxy-6,8-di(3-methyl-2-buten-1-yl)-4H-benzopyran-4-one]",> 100 µM,> 100 µM,–,–
"COc1c(-c2ccnn2C)oc2c(CC=C(C)C)c(O)c(CC=C(C)C)c(O)c2c1=O [Compound 45, 2-(1-methyl-1H-pyrazol-5-yl)-5,7-dihydroxy-3-methoxy-6,8-di(3-methyl-2-buten-1-yl)-4H-benzopyran-4-one]",–,31.1 µM,> 100 µM,–
"COc1c(-c2cnn(C)c2)oc2c(CC=C(C)C)c(O)c(CC=C(C)C)c(O)c2c1=O [Compound 46, 2-(1-methyl-1H-pyrazol-4-yl)-5,7-dihydroxy-3-methoxy-6,8-di(3-methyl-2-buten-1-yl)-4H-benzopyran-4-one]",> 100 µM,> 100 µM,–,–
"COc1c(-c2nccn2C)oc2c(CC=C(C)C)c(O)c(CC=C(C)C)c(O)c2c1=O [Compound 47, 2-(1-methyl-1H-imidazol-2-yl)-5,7-dihydroxy-3-methoxy-6,8-di(3-methyl-2-buten-1-yl)-4H-benzopyran-4-one]",43.5 µM,> 100 µM,–,–
"COc1c(-c2ccnn2C)oc2c(CC=C(C)C)c(O)c(CC=C(C)C)c(O)c2c1=O [Compound 48, 2-(1-methyl-1H-pyrazol-5-yl)-5,7-dihydroxy-3-methoxy-6,8-di(3-methyl-2-buten-1-yl)-4H-benzopyran-4-one]",–,–,25 µM,37.2 µM
"COc1c(-c2cc3ccccc3o2)oc2c(CC=C(C)C)c(O)c(CC=C(C)C)c(O)c2c1=O [Compound 50, 2-(benzofuran-2-yl)-5,7-dihydroxy-3-methoxy-6,8-di(3-methyl-2-buten-1-yl)-4H-benzopyran-4-one]",13.6 µM,20.4 µM,–,–
"COc1c(-c2ccnc(F)c2)oc2c(CC=C(C)C)c(O)c(CC=C(C)C)c(O)c2c1=O [Compound 51, 2-(2-fluoropyridin-4-yl)-5,7-dihydroxy-3-methoxy-6,8-di(3-methyl-2-buten-1-yl)-4H-benzopyran-4-one]",> 100 µM,> 100 µM,–,–
"COc1c(-c2ccc(Cl)nc2)oc2c(CC=C(C)C)c(O)c(CC=C(C)C)c(O)c2c1=O [Compound 52, 2-(6-chloropyridin-3-yl)-5,7-dihydroxy-3-methoxy-6,8-di(3-methyl-2-buten-1-yl)-4H-benzopyran-4-one]",8.34 ± 1.63 µM,7.04 ± 1.43 µM,–,–
"COc1c(-c2ccc(Cl)cn2)oc2c(CC=C(C)C)c(O)c(CC=C(C)C)c(O)c2c1=O [Compound 53, 2-(5-chloropyridin-2-yl)-5,7-dihydroxy-3-methoxy-6,8-di(3-3-methyl-2-buten-1-yl)-4H-benzopyran-4-one]",–,–,17 ± 4.97 µM,19.5 ± 1.02 µM
"COc1c(-c2ccc(F)nc2)oc2c(CC=C(C)C)c(O)c(CC=C(C)C)c(O)c2c1=O [Compound 54, 2-(6-fluoropyridin-3-yl)-5,7-dihydroxy-3-methoxy-6,8-di(3-3-methyl-2-buten-1-yl)-4H-benzopyran-4-one]",–,–,10.3 ± 0.38 µM,7.06 ± 3.16 µM
"COc1c(-c2ccnc(Cl)c2)oc2c(CC=C(C)C)c(O)c(CC=C(C)C)c(O)c2c1=O [Compound 55, 2-(2-chloropyridin-4-yl)-5,7-dihydroxy-3-methoxy-6,8-di(3-methyl-2-buten-1-yl)-4H-benzopyran-4-one]",5.51 ± 0.02 µM,4.17 ± 2.45 µM,–,–
"COc1c(-c2ccc(C(=O)O)cc2)oc2c(CC=C(C)C)c(O)c(CC=C(C)C)c(O)c2c1=O [Compound 56, 4-[5,7-dihydroxy-3-methoxy-6,8-di(3-methyl-2-butenyl)-4-oxo-4H-benzopyran-2-yl]benzoic acid]",5.96 µM,29.2 µM,–,–
"COc1c(-c2ccc(OC(F)(F)F)cc2)oc2c(CC=C(C)C)c(O)c(CC=C(C)C)c(O)c2c1=O [Compound 58, 2-(4-trifluoromethoxyphenyl)-5,7-dihydroxy-3-methoxy-6,8-di(3-methyl-2-buten-1-yl)-4H-benzopyran-4-one]",3.63 µM,> 100 µM,–,–
"COc1c(-c2ccc(N(C)C)cc2)oc2c(CC=C(C)C)c(O)c(CC=C(C)C)c(O)c2c1=O [Compound 59, 2-(4-dimethylaminophenyl)-5,7-dihydroxy-3-methoxy-6,8-di(3-methyl-2-buten-1-yl)-4H-benzopyran-4-one]",> 100 µM,5.12 µM,–,–
"COc1c(-c2ccc(S(C)(=O)=O)cc2)oc2c(CC=C(C)C)c(O)c(CC=C(C)C)c(O)c2c1=O [Compound 64, 2-(4-methanesulfonylphenyl)5,7-dihydroxy-3-methoxy-6,8-di(3-methyl-2-buten-1-yl)-4H-benzopyran-4-one]",2.45 µM,40.6 µM,–,–
"COc1c(-c2ccc(C(C)=O)cc2)oc2c(CC=C(C)C)c(O)c(CC=C(C)C)c(O)c2c1=O [Compound 65, 2-(4-acetylphenyl)-5,7-dihydroxy-3-methoxy-6,8-di(3-methyl-2-buten-1-yl)-4H-benzopyran-4-one]",> 100 µM,10.2 µM,–,–
COc1c(-c2ccc(C(C)O)cc2)oc2c(CC=C(C)C)c(O)c(CC=C(C)C)c(O)c2c1=O (stereo not shown) [Compound 67],–,–,3.27 µM,4.66 µM
"COc1c(-c2cncs2)oc2c(CC=C(C)C)c(O)c(CC=C(C)C)c(O)c2c1=O [Compound 68, 2-(thiazol-5-yl)-5,7-dihydroxy-3-methoxy-6,8-di(3-methyl-2-buten-1-yl)-4H-benzopyran-4-one]",–,–,23.8 µM,8.89 µM
"COc1c(CC=C(C)C)c(O)c2c(=O)c(OC)c(-c3ccc(F)c(F)c3)oc2c1CC=C(C)C [Compound 81A, 2-(3,4-difluorophenyl)-5-hydroxy-3,7-dimethoxy-6,8-di(3-methyl-2-buten-1-yl)-4H-benzopyran-4-one]",> 100 µM,> 100 µM,–,–
"COc1c(CC=C(C)C)cc2c(=O)c(OC)c(-c3ccc(F)c(F)c3)oc2c1CC=C(C)C [Compound 81B, 2-(3,4-difluorophenyl)-3,7-dimethoxy-6,8-di(3-methyl-2-buten-1-yl)-4H-benzopyran-4-one]",> 100 µM,> 100 µM,–,–
"COc1c(CC=C(C)C)c(O)c2c(=O)c(OC)c(-c3ccc(Cl)c(F)c3)oc2c1CC=C(C)C [Compound 82A, 2-(3-fluoro-4-chlorophenyl)-5-hydroxy-3,7-dimethoxy-6,8-di(3-methyl-2-buten-1-yl)-4H-benzopyran-4-one]",> 100 µM,> 100 µM,–,–
"COc1c(CC=C(C)C)c(OC)c2c(=O)c(OC)c(-c3ccc(Cl)c(F)c3)oc2c1CC=C(C)C [Compound 82B, 2-(3-fluoro-4-chlorophenyl)-3,5,7-trimethoxy-6,8-di(3-methyl-2-buten-1-yl)-4H-benzopyran-4-one]",26.3 µM,> 100 µM,–,–
"CC(C)=CCc1c(O)c(CC=C(C)C)c2oc(-c3ccc(F)c(F)c3)cc(=O)c2c1O [Compound 85, 2-(3,4-difluorophenyl)-5,7-dihydroxy-6,8-di(3-methyl-2-buten-1-yl)-4H-benzopyran-4-one]",> 100 µM,> 100 µM,–,–
"CC(C)=CCc1c(O)c(CC=C(C)C)c2oc(-c3ccc(Cl)c(F)c3)cc(=O)c2c1O [Compound 86, 2-(3-fluoro-4-chlorophenyl)-5,7-dihydroxy-6,8-di(3-methyl-2-buten-1-yl)-4H-benzopyran-4-one]",> 100 µM,> 100 µM,–,–
"CC(C)=CCc1c(O)c(CC=C(C)C)c2oc(-c3ccc(C)cc3)cc(=O)c2c1O [Compound 87, 2-(4-methylphenyl)-5,7-dihydroxy-6,8-di(3-methyl-2-buten-1-yl)-4H-benzopyran-4-one]",16.3 µM,> 100 µM,–,–
"CC(C)=CCc1c(O)c(CC=C(C)C)c2oc(-c3ccc(Cl)c(Cl)c3)cc(=O)c2c1O [Compound 88, 2-(3,4-dichlorophenyl)-5,7-dihydroxy-6,8-di(3-methyl-2-buten-1-yl)-4H-benzopyran-4-one]",16.1 µM,> 100 µM,–,–
"CC(C)=CCc1c(O)c(CC=C(C)C)c2oc(-c3ccc(F)cc3)cc(=O)c2c1O [Compound 89, 2-(4-fluorophenyl)-5,7-dihydroxy-6,8-di(3-methyl-2-buten-1-yl)-4H-benzopyran-4-one]",> 100 µM,> 100 µM,–,–
